Test results as given in patent publication US12605377B2, “Methods of treating fibrosis” (Endeavor Biomedicines, Inc., priority 2020, dated 2026).
Counter-ions that a name gives are not always drawn. Like-named read-outs stand apart in the source and are kept apart here.

Tests used:
[1] = test system: kidney fibrosis; conditions: in vivo; cited from earlier work
[2] = test system: Brain Tumor mGli1; assay: PK/PD GIi1 expression in Ptch−/+ × p53−/− transgenic tumor model (qRT-PCR TaqMan); assay type: in vivo, mouse; conditions: PTCH Tg, single oral dose
Excerpt: (§1) Following the predetermined dosing period, surrogate tissues (lung, skin, and cerebellum) from Balb/C mouse and tumor from Ptch^−/+×p53^−/− transgenic tumor model were harvested, processed, and evaluated for GIi1 expression levels using a quantitative reverse transcription polymerase chain reaction TaqMan® assay. […] Given the parallel PD effects, skin GIi1 is an appropriate PD surrogate for lung tissue GIi1.

[3] = test system: Hh signaling activity in mouse C3H10T½ cells; assay: Gli-Luciferase activity in C3H10T½ cells stimulated with SHh-CM; assay type: cell-based; conditions: n=8, geometric mean±SE
[4] = test system: mGli1; assay: PK/PD GIi1 expression in Balb/c surrogate tissues after single oral dose (qRT-PCR TaqMan); assay type: in vivo, Balb/c mouse
Excerpt: as §1

[5] = test system: Hh signaling activity in human Daoy cells; assay: GIi1 transcript levels in Daoy tumor cell line stimulated with SHh-CM (branched chain DNA assay); assay type: cell-based; conditions: GIi1 mRNA, n=8, geometric mean±SE
[6] = cited from earlier work; for predominant AE causing discontinuation: comparator drugs
[7] = test system: IPF patients; conditions: cited from earlier work; for effect on FVC in clinical trials (FIG. 1): IPF patients, 24 weeks (GLPG1690 12 weeks), vismodegib in combination with pirfenidone
[8] = clinical pharmacokinetics; conditions: human, in vivo
[9] = clinical safety and tolerability (MTD, adverse events, discontinuations)
Protocol: (§2) Taldegib was administered to subjects at doses of 50, 100, 200, 400 and 600 mg.

[10] = test system: IPF; assay: Phase 2 multi-center study of safety and efficacy in subjects with IPF; assay type: in vivo, human
Excerpt: Quantitative (% and mL) and qualitative (improved, same, worse) assessment of lung fibrosis by HRCT will be performed at Screening and Week 12. The Screening HRCT will serve as the baseline for study HRCT assessments.

[11] = test system: GIi1 mRNA; assay: GIi1 mRNA inhibition in skin biopsies of clinical subjects; assay type: in vivo, human
Protocol: as §2

[12] = oral bioavailability; conditions: in vivo
Excerpt: This molecule has been in over 192 human subjects and developed initially with the intention of treating oncologic indications with a focus on lung cancer and basal cell carcinoma (BCC). Although primarily cancer patients, these studies allowed for a preliminary understanding of dose and tolerability.

[13] = test system: Hh; conditions: Zhu et al. 2019; read-out: ID50 for Hh inhibition; cited from earlier work
[14] = test system: α-SMA protein expression (myofibroblasts); assay: bleomycin-induced pulmonary fibrosis model, anti-α-SMA immunohistochemistry; conditions: 5 mg/kg orally daily from day seven, pathology on day 21
Excerpt: FIG. 4B depicts the percent α-SMA positive area from the individual mice and the mean and standard deviation for the treatment groups.
A Microsprayer® Aerosolizer was used to perform intratracheal administration of bleomycin. By administering bleomycin via Microsprayer® Aerosolizer, it can be evenly exposed to the lungs and thus, develops a reproducible and uniform pathology.
Pathology of animals was examined on day 21 of the study.

[15] = test system: GIi1 activity; conditions: Daoy cells, assay of U.S. Pat. No. 9,000,023; cited from earlier work
[16] = test system: lung fibrosis
[17] = Biopharmaceutics Classification System (BCS) class; assay type: physicochemical
[18] = test system: GIi1 mRNA; conditions: vismodegib at its MTD of 150 mg; cited from earlier work
[19] = Balb/c, cerebellum, single oral dose
[20] = after sufficient step-down of dosage, if any

SMILES: CC1=C2C[C@H]3[C@@H](CC[C@@H]4C[C@H](NS(C)(=O)=O)CC[C@@]43C)[C@@H]2CC[C@@]2(C1)O[C@@H]1C[C@H](C)CN[C@H]1[C@H]2C [IPI-926]
- efficacy in treating kidney fibrosis [1]: ineffective

SMILES: CN(C(=O)c1ccc(F)cc1C(F)(F)F)C1CCN(c2nnc(-c3ccnn3C)c3ccccc23)CC1 [Taladegib hydrochloride]
- Brain Tumor mGli1 TEC50 [2]: 63.0 ng/mL
- Brain Tumor mGli1 TED50 [2]: 1.0 mg/kg
- IC50 [3]: 11.2 ± 5.33 nM
- Cerebellum mGli1 TEC50 [4, 19]: 230 ng/mL
- Cerebellum mGli1 TED50 [4, 19]: 2.2 mg/kg
- Lung mGli1 TEC50 ([4]; Balb/c, lung, single oral dose): 264 ± 114 ng/mL
- Lung mGli1 TED50 ([4]; Balb/c, lung, single oral dose): 2.6 ± 0.6 mg/kg
- Skin mGli1 TEC50 ([4]; Balb/c, skin, single oral dose): 84 ng/mL
- Skin mGli1 TED50 ([4]; Balb/c, skin, single oral dose): 1.1 mg/kg
- duration of sustained target inhibition ([4]; time course, single oral dose 8 mg/kg): at least 24 hours
- IC50 [5]: 2.22 ± 1.14 nM

SMILES: CC1=C2C[C@H]3[C@@H](CC=C4C[C@@H](O)CC[C@@]43C)[C@@H]2CC[C@]12O[C@@H]1C[C@H](C)CN[C@H]1[C@H]2C [cyclopamine]
- efficacy in treating kidney fibrosis [1]: ineffective

SMILES: COC(=O)c1ccc2c(c1)NC(=O)/C2=C(\Nc1ccc(N(C)C(=O)CN2CCN(C)CC2)cc1)c1ccccc1 [nintedanib]
- predominant AE causing discontinuation [6]: diarrhea
- effect on FVC in clinical trials (FIG. 1) [7]: only able to slow the deterioration of FVC

SMILES: Cc1ccc(=O)n(-c2ccccc2)c1 [pirfenidone]
- predominant AE causing discontinuation [6]: nausea
- effect on FVC in clinical trials (FIG. 1) [7]: only able to slow the deterioration of FVC

SMILES: CN(C(=O)c1ccc(F)cc1C(F)(F)F)C1CCN(c2nnc(-c3ccnn3C)c3ccccc23)CC1 [taladegib]
- half-life ([8]; across all doses, estimated, read-out: mean half-life (t½) (converted)): ~16 h
- Tmax ([8]; read-out: median tmax): 2 h
- most commonly observed adverse events (AEs) ([9]; human, in vivo): nausea, diarrhea, dysgeusia, fatigue, decreased appetite, alopecia, vomiting, muscle spasm, constipation, weight decrease, and headache
- occurrence of muscle spasms ([9]; human, in vivo): 40%
- predominant AE causing discontinuation ([9]; human, in vivo): no prevalent AE
- clinically established MTD ([9]; taladegib): 400 mg
- serious drug-related adverse events [10, 20]: did not experience serious drug-related adverse events
- efficacy endpoints ([10]; at 12 weeks): stabilization or improvement
- dose limiting toxicities ([10]; at 12 weeks, starting at 200 mg/day): no or limited dose limiting toxicities are observed
- durability of the response ([10]; at 18 weeks): durability of the response is observed
- pharmacological activity (BED: inhibition >50%) ([11]; all dose levels tested, 50-600 mg): pharmacologically active at all dose levels tested
- inhibition of GIi1 mRNA ([11]; dose 50 mg): greater than 80%
- GIi1 mRNA inhibition in skin ([11]; dose 400 mg (MTD)): > 85%
- inhibition of Gli in skin biopsies ([11]; doses of 50, 100, 200, 400 and 600 mg, most patients): > 80%
- bioavailability [12]: 72 to 91%
- IC50 [13]: 2.26 nM
- reduction of α-SMA protein expression [14]: approximately 40%
- IC50 [15]: ~2.4 nM
- serious drug-related adverse events [16, 20]: did not experience serious drug-related adverse events
- efficacy endpoints ([16]; at 24 weeks, starting at 200 mg daily): stabilization or improvement
- BCS class [17]: class II (high permeability, low solubility)

SMILES: CS(=O)(=O)c1ccc(C(=O)Nc2ccc(Cl)c(-c3ccccn3)c2)c(Cl)c1 [vismodegib]
- predominant AE causing discontinuation [6]: muscle spasms
- discontinuation of participants ([6]; single arm IPF study, combination with pirfenidone, severe muscle spasms): over 40%
- Muscle Spasm Adverse Event Frequency, Grade 1 ([6]; vismodegib 150, 104 patients): 43% (45)
- Muscle Spasm Adverse Event Frequency, Grade 2 ([6]; vismodegib 150, 104 patients): 22% (23)
- Muscle Spasm Adverse Event Frequency, Grade 3 ([6]; vismodegib 150, 104 patients): 6% (7)
- Muscle Spasm Adverse Event Frequency, Grade 4 ([6]; vismodegib 150, 104 patients): 0%
- MTD ([6]; vismodegib): 150 mg
- GIi1 mRNA inhibition [18]: less than 50%
- effect on FVC in clinical trials (FIG. 1) [7]: substantial increase in FVC
- increase in Forced Vital Capacity (FVC) ([7]; single arm IPF study, combination with pirfenidone, after six months, average): approximately 100 mL

SMILES: CCc1nc2c(C)cc(N3CCN(CC(=O)N4CC(O)C4)CC3)cn2c1N(C)c1nc(-c2ccc(F)cc2)c(C#N)s1 [zirtaxestat]
- effect on FVC in clinical trials (FIG. 1) [7]: small increase in FVC
